Source: PubChem BioAssay (NCI)
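In this assay, cells in 96-well plates receive the compound at five concentrations for 48 hours. Endpoints are linearly interpolated between the surrounding concentrations. TGI marks complete inhibition of growth.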

Key:
Assay in all cases: DTP human tumour cell line panel, 48 h
[1] = system: 786-0 renal
[2] = system: A498 renal
[3] = system: ACHN renal
[4] = system: CAKI-1 renal
[5] = system: COLO 205 colon
[6] = system: DMS 114 small cell lung
[7] = system: DMS 273 small cell lung
[8] = system: EKVX NSCLC
[9] = system: HCC-2998 colon
[10] = system: HCT-116 colon
[11] = system: HCT-15 colon
[12] = system: HOP-18 NSCLC
[13] = system: HOP-62 NSCLC
[14] = system: HOP-92 NSCLC
[15] = system: HT29 colon
[16] = system: IGROV1 ovarian
[17] = system: K-562 leukemia
[18] = system: KM12 colon
[19] = system: KM20L2 colon
[20] = system: LOX IMVI melanoma
[21] = system: LXFL 529 NSCLC
[22] = system: M14 melanoma
[23] = system: M19-MEL melanoma
[24] = system: MALME-3M melanoma
[25] = system: MOLT-4 leukemia
[26] = system: NCI-H226 lung
[27] = system: NCI-H23 lung
[28] = system: NCI-H460 lung
[29] = system: NCI-H522 lung
[30] = system: OVCAR-3 ovarian
[31] = system: OVCAR-4 ovarian
[32] = system: OVCAR-5 ovarian
[33] = system: OVCAR-8 ovarian
[34] = system: RPMI-8226 leukemia
[35] = system: RXF 393 renal
[36] = system: RXF-631 renal
[37] = system: SF-268 CNS
[38] = system: SF-295 CNS
[39] = system: SF-539 CNS
[40] = system: SK-MEL-2 melanoma
[41] = system: SK-MEL-28 melanoma
[42] = system: SK-MEL-5 melanoma
[43] = system: SK-OV-3 ovarian
[44] = system: SN12C renal
[45] = system: SNB-19 CNS
[46] = system: SNB-75 CNS
[47] = system: SNB-78 CNS
[48] = system: SW-620 colon
[49] = system: TK-10 renal
[50] = system: U251 CNS
[51] = system: UACC-257 melanoma
[52] = system: UACC-62 melanoma
[53] = system: UO-31 renal
[54] = system: XF 498 CNS
[55] = system: A549 NSCLC
[56] = system: CCRF-CEM leukemia
[57] = system: DLD-1 colon
[58] = system: HL-60(TB) leukemia
[59] = system: SR leukemia

Measured: TGI

N#CC1C(=O)NC(=O)C1=O (stereo not drawn)
not listed: [55] | [56] | [57] | [58] | [59]
> 100 µM: all other assays above

CC1(C)CC(N2CCN(C3CC(C)(C)NC(C)(C)C3)CC2)CC(C)(C)N1
not listed: [5] | [23] | [24] | [26] | [40]
> 100 µM: all other assays above
